From ChEMBL document CHEMBL4316596, “Antimicrobial Peptides with High Proteolytic Resistance for Combating Gram-Negative Bacteria” (J Med Chem, 2019)

Experiments:
Escherichia coli [1] = experiment: Antimicrobial activity against Escherichia coli UB1005 after 24 hrs by NCCLS-protocol based assay; format: functional; settings: UB1005, 24 h
Escherichia coli [2] = experiment: Antimicrobial activity against Escherichia coli K88 after 24 hrs by NCCLS-protocol based assay; format: functional; settings: K88, 24 h
[3] = Antimicrobial activity against Salmonella pullorum C7913 after 24 hrs by NCCLS-protocol based assay; format: functional, Salmonella enterica subsp. enterica serovar Pullorum; settings: Salmonella enterica, C7913, 24 h
Escherichia coli [4] = experiment: Bactericidal activity against Escherichia coli K88 incubated for 4 hrs followed by culture spread on agar plates and cultured overnight; format: functional; settings: K88, 4 h, read-out: MBC>99.9
Escherichia coli [5] = experiment: Antimicrobial activity against Escherichia coli ATCC 25922 after 24 hrs by NCCLS-protocol based assay; format: functional; settings: ATCC 25922, 24 h
Pseudomonas aeruginosa [6] = experiment: Antimicrobial activity against Pseudomonas aeruginosa PAO1 after 24 hrs by NCCLS-protocol based assay; format: functional; settings: PAO1, 24 h
Pseudomonas aeruginosa [7] = experiment: Antimicrobial activity against Pseudomonas aeruginosa CICC 21625 clinical isolates after 24 hrs by NCCLS-protocol based assay; format: functional; settings: CICC 21625, 24 h
Klebsiella pneumoniae [8] = experiment: Antimicrobial activity against Klebsiella pneumoniae after 24 hrs by NCCLS-protocol based assay; format: functional
Acinetobacter baumannii [9] = experiment: Antimicrobial activity against Acinetobacter baumannii after 24 hrs by NCCLS-protocol based assay; format: functional
Pseudomonas aeruginosa [10] = experiment: Antimicrobial activity against Pseudomonas aeruginosa 25349 clinical isolates after 24 hrs by NCCLS-protocol based assay; format: functional; settings: Pseudomonas aeruginosa, 25349, 24 h
Pseudomonas aeruginosa [11] = experiment: Bactericidal activity against Pseudomonas aeruginosa CICC 21625 clinical isolates incubated for 4 hrs followed by culture spread on agar plates and cultured overnight; format: functional; settings: CICC 21625, 4 h, read-out: MBC>99.9
Pseudomonas aeruginosa [12] = experiment: Bactericidal activity against Pseudomonas aeruginosa PAO1 incubated for 4 hrs followed by culture spread on agar plates and cultured overnight; format: functional; settings: PAO1, 4 h, read-out: MBC>99.9
Escherichia coli [13] = experiment: Bactericidal activity against Escherichia coli 078 incubated for 4 hrs followed by culture spread on agar plates and cultured overnight; format: functional; settings: Escherichia coli, 078, 4 h; read-out: MBC>99.9
Escherichia coli [14] = experiment: Bactericidal activity against Escherichia coli K99 incubated for 4 hrs followed by culture spread on agar plates and cultured overnight; format: functional; settings: K99, 4 h, read-out: MBC>99.9
Salmonella typhimurium [15] = experiment: Antimicrobial activity against Salmonella typhimurium C7731 after 24 hrs by NCCLS-protocol based assay; format: functional, Salmonella enterica subsp. enterica serovar Typhimurium; settings: Salmonella enterica, C7731, 24 h
Escherichia coli [16] = experiment: Antimicrobial activity against Escherichia coli 078 after 24 hrs by NCCLS-protocol based assay; format: functional; settings: Escherichia coli, 078, 24 h
Klebsiella pneumoniae [17] = experiment: Bactericidal activity against Klebsiella pneumoniae incubated for 4 hrs followed by culture spread on agar plates and cultured overnight; format: functional; settings: read-out: MBC>99.9
Escherichia coli [18] = experiment: Bactericidal activity against Escherichia coli UB1005 incubated for 4 hrs followed by culture spread on agar plates and cultured overnight; format: functional; settings: UB1005, 4 h, read-out: MBC>99.9
Pseudomonas aeruginosa [19] = experiment: Antimicrobial activity against Pseudomonas aeruginosa 26305 clinical isolates after 24 hrs by NCCLS-protocol based assay; format: functional; settings: Pseudomonas aeruginosa, 26305, 24 h
Salmonella typhimurium [20] = experiment: Antimicrobial activity against Salmonella typhimurium ATCC 14028 after 24 hrs by NCCLS-protocol based assay; format: functional, Salmonella enterica subsp. enterica serovar Typhimurium; settings: Salmonella enterica, ATCC 14028, 24 h
[21] = Bactericidal activity against Salmonella pullorum C7913 incubated for 4 hrs followed by culture spread on agar plates and cultured overnight; format: functional, Salmonella enterica subsp. enterica serovar Pullorum; settings: Salmonella enterica, C7913, 4 h; read-out: MBC>99.9
Pseudomonas aeruginosa [22] = experiment: Antimicrobial activity against Pseudomonas aeruginosa ATCC 27853 after 24 hrs by NCCLS-protocol based assay; format: functional; settings: ATCC 27853, 24 h
Escherichia coli [23] = experiment: Bactericidal activity against Escherichia coli ATCC 25922 incubated for 4 hrs followed by culture spread on agar plates and cultured overnight; format: functional; settings: ATCC 25922, 4 h, read-out: MBC>99.9
Acinetobacter baumannii [24] = experiment: Bactericidal activity against Acinetobacter baumannii incubated for 4 hrs followed by culture spread on agar plates and cultured overnight; format: functional; settings: read-out: MBC>99.9
Pseudomonas aeruginosa [25] = experiment: Bactericidal activity against Pseudomonas aeruginosa ATCC 27853 incubated for 4 hrs followed by culture spread on agar plates and cultured overnight; format: functional; settings: ATCC 27853, 4 h, read-out: MBC>99.9
Escherichia coli [26] = experiment: Antimicrobial activity against Escherichia coli K99 after 24 hrs by NCCLS-protocol based assay; format: functional; settings: K99, 24 h
Pseudomonas aeruginosa [27] = experiment: Bactericidal activity against Pseudomonas aeruginosa 25349 clinical isolates incubated for 4 hrs followed by culture spread on agar plates and cultured overnight; format: functional; settings: Pseudomonas aeruginosa, 25349, 4 h; read-out: MBC>99.9
Pseudomonas aeruginosa [28] = experiment: Antimicrobial activity against Pseudomonas aeruginosa CICC 21630 clinical isolates after 24 hrs by NCCLS-protocol based assay; format: functional; settings: CICC 21630, 24 h
Pseudomonas aeruginosa [29] = experiment: Bactericidal activity against Pseudomonas aeruginosa CICC 21630 clinical isolates incubated for 4 hrs followed by culture spread on agar plates and cultured overnight; format: functional; settings: CICC 21630, 4 h, read-out: MBC>99.9
Pseudomonas aeruginosa [30] = experiment: Bactericidal activity against Pseudomonas aeruginosa 26305 clinical isolates incubated for 4 hrs followed by culture spread on agar plates and cultured overnight; format: functional; settings: Pseudomonas aeruginosa, 26305, 4 h; read-out: MBC>99.9
Salmonella typhimurium [31] = experiment: Bactericidal activity against Salmonella typhimurium C7731 incubated for 4 hrs followed by culture spread on agar plates and cultured overnight; format: functional, Salmonella enterica subsp. enterica serovar Typhimurium; settings: Salmonella enterica, C7731, 4 h; read-out: MBC>99.9
Salmonella typhimurium [32] = experiment: Bactericidal activity against Salmonella typhimurium ATCC 14028 incubated for 4 hrs followed by culture spread on agar plates and cultured overnight; format: functional, Salmonella enterica subsp. enterica serovar Typhimurium; settings: Salmonella enterica, ATCC 14028, 4 h; read-out: MBC>99.9

Substance	MIC95 (Escherichia coli [1]) [µM]	MIC95 (Escherichia coli [2]) [µM]	MIC95 [3] [µM]	MBC (Escherichia coli [4]) [µM]	MIC95 (Escherichia coli [5]) [µM]	MIC95 (Pseudomonas aeruginosa [6]) [µM]	MIC95 (Pseudomonas aeruginosa [7]) [µM]	MIC95 (Klebsiella pneumoniae [8]) [µM]	MIC95 (Acinetobacter baumannii [9]) [µM]	MIC95 (Pseudomonas aeruginosa [10]) [µM]	MBC (Pseudomonas aeruginosa [11]) [µM]	MBC (Pseudomonas aeruginosa [12]) [µM]	MBC (Escherichia coli [13]) [µM]	MBC (Escherichia coli [14]) [µM]	MIC95 (Salmonella typhimurium [15]) [µM]	MIC95 (Escherichia coli [16]) [µM]	MBC (Klebsiella pneumoniae [17]) [µM]	MBC (Escherichia coli [18]) [µM]	MIC95 (Pseudomonas aeruginosa [19]) [µM]	MIC95 (Salmonella typhimurium [20]) [µM]	further results
H-VKPVVKPVVKPVVKPVVKPVVKPV-NH2	> 64	> 64	> 64	> 64	> 64	> 64	> 64	> 64	> 64	> 64	> 64	> 64	> 64	> 64	> 64	> 64	> 64	> 64	> 64	> 64	MBC [21]: > 64 µM; MIC95 (Pseudomonas aeruginosa [22]): > 64 µM; MBC (Escherichia coli [23]): > 64 µM; MBC (Acinetobacter baumannii [24]): > 64 µM; MBC (Pseudomonas aeruginosa [25]): > 64 µM; MIC95 (Escherichia coli [26]): > 64 µM; MBC (Pseudomonas aeruginosa [27]): > 64 µM; MIC95 (Pseudomonas aeruginosa [28]): > 64 µM; MBC (Pseudomonas aeruginosa [29]): > 64 µM; MBC (Pseudomonas aeruginosa [30]): > 64 µM; MBC (Salmonella typhimurium [31]): > 64 µM; MBC (Salmonella typhimurium [32]): > 64 µM
H-LRPLLRPLLRPLLRPLLRPL-NH2	4	2	2	4	4	32	32	8	2	32	32	32	4	8	4	4	8	8	32	4	MBC [21]: 4 µM; MIC95 (Pseudomonas aeruginosa [22]): 32 µM; MBC (Escherichia coli [23]): 4 µM; MBC (Acinetobacter baumannii [24]): 4 µM; MBC (Pseudomonas aeruginosa [25]): 16 µM; MIC95 (Escherichia coli [26]): 4 µM; MBC (Pseudomonas aeruginosa [27]): 32 µM; MIC95 (Pseudomonas aeruginosa [28]): 16 µM; MBC (Pseudomonas aeruginosa [29]): 16 µM; MBC (Pseudomonas aeruginosa [30]): 32 µM; MBC (Salmonella typhimurium [31]): 8 µM; MBC (Salmonella typhimurium [32]): 16 µM
H-IKPIIKPIIKPIIKPI-NH2	> 64	> 64	> 64	> 64	> 64	> 64	> 64	> 64	> 64	> 64	> 64	> 64	> 64	> 64	> 64	> 64	> 64	> 64	> 64	> 64	MBC [21]: > 64 µM; MIC95 (Pseudomonas aeruginosa [22]): > 64 µM; MBC (Escherichia coli [23]): > 64 µM; MBC (Acinetobacter baumannii [24]): > 64 µM; MBC (Pseudomonas aeruginosa [25]): > 64 µM; MIC95 (Escherichia coli [26]): > 64 µM; MBC (Pseudomonas aeruginosa [27]): > 64 µM; MIC95 (Pseudomonas aeruginosa [28]): > 64 µM; MBC (Pseudomonas aeruginosa [29]): > 64 µM; MBC (Pseudomonas aeruginosa [30]): > 64 µM; MBC (Salmonella typhimurium [31]): > 64 µM; MBC (Salmonella typhimurium [32]): > 64 µM
H-IKPIIKPIIKPIIKPIIKPI-NH2	> 64	> 64	> 64	> 64	> 64	> 64	> 64	> 64	> 64	> 64	> 64	> 64	> 64	> 64	> 64	> 64	> 64	> 64	> 64	> 64	MBC [21]: > 64 µM; MIC95 (Pseudomonas aeruginosa [22]): > 64 µM; MBC (Escherichia coli [23]): > 64 µM; MBC (Acinetobacter baumannii [24]): > 64 µM; MBC (Pseudomonas aeruginosa [25]): > 64 µM; MIC95 (Escherichia coli [26]): > 64 µM; MBC (Pseudomonas aeruginosa [27]): > 64 µM; MIC95 (Pseudomonas aeruginosa [28]): > 64 µM; MBC (Pseudomonas aeruginosa [29]): > 64 µM; MBC (Pseudomonas aeruginosa [30]): > 64 µM; MBC (Salmonella typhimurium [31]): > 64 µM; MBC (Salmonella typhimurium [32]): > 64 µM
H-VKPVVKPVVKPVVKPVVKPVVKPVVKPV-NH2	> 64	> 64	> 64	> 64	> 64	> 64	> 64	> 64	> 64	> 64	> 64	> 64	> 64	> 64	> 64	> 64	> 64	> 64	> 64	> 64	MBC [21]: > 64 µM; MIC95 (Pseudomonas aeruginosa [22]): > 64 µM; MBC (Escherichia coli [23]): > 64 µM; MBC (Acinetobacter baumannii [24]): > 64 µM; MBC (Pseudomonas aeruginosa [25]): > 64 µM; MIC95 (Escherichia coli [26]): > 64 µM; MBC (Pseudomonas aeruginosa [27]): > 64 µM; MIC95 (Pseudomonas aeruginosa [28]): > 64 µM; MBC (Pseudomonas aeruginosa [29]): > 64 µM; MBC (Pseudomonas aeruginosa [30]): > 64 µM; MBC (Salmonella typhimurium [31]): > 64 µM; MBC (Salmonella typhimurium [32]): > 64 µM
